Assay results published in patent US7468375B2 (Pfizer Inc., priority 2004, dated 2008).
Like-named read-outs stand apart in the source and are kept apart here.

Legend:
[1] = tested on: RF strain of HIV-1 in CEM-SS cells; experiment: HIV-1 cell protection assay (XTT dye reduction); type: cell-based; settings: HIV-1 RF, CEM-SS cells, XTT dye reduction, six days, read-out: EC50
In short: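 CEM-SS cells infected with HIV-1 RF (moi 0.025–0.819) or mock-infected, 2×10^4 cells/well with half-log compound dilutions for six days. Viability by XTT/PMS reduction (4 h), absorbance 450 nm, as % of uninfected untreated cells. Therapeutic index = CC50/EC50.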

[2] = target: T1, Full-length wild type HIV-1 integrase (SF1) (Human immunodeficiency virus type 1 group M subtype B, UniProt P04585); experiment: Integrase strand-transfer scintillation proximity assay; type: biochemical; settings: strand transfer, 50 min at 37° C., 246 nM integrase, 50 nM host DNA; read-out: IC50
T1 construct: made in house; host or cells: E. coli BL21 (DE3)
In short: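 Recombinant full-length wild-type HIV-1 integrase (aa 1-288), E. coli-expressed, tested on biotinylated pre-processed U5 LTR viral ds-DNA with CA overhang bound to streptavidin SPA beads. [3H]-thymidine-labelled host ds-DNA serves as target; strand transfer read by scintillation proximity. A 3′ di-deoxy viral DNA control checks non-specific binding.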

[3] = Human immunodeficiency virus 1, CEM-SS, 144 h

SMILES | EC50 [1, 3] | IC50 [2] | EC50 [1]
O=C(NO)c1cc2c(CNCCCN3CCCC3=O)cn(Cc3ccc(F)cc3F)c2cn1 [Example 68, 1-(2,4-Difluorobenzyl)-N-hydroxy-3-({[3-(2-oxopyrrolidin-1-yl)propyl]amino}methyl)-1H-pyrrolo[2,3-c]pyridine-5-carboxamide] | 100 nM | 549 nM | 
CCN(CCO)Cc1cn(Cc2ccc(F)cc2F)c2cnc(C(=O)NO)cc12 [Example 69, 1-(2,4-Difluorobenzyl)-3-{[ethyl(2-hydroxyethyl)amino]methyl}-N-hydroxy-1H-pyrrolo[2,3-c]pyridine-5-carboxamide] | 28 nM | 755 nM | 
O=C(NO)c1cc2c(CNCc3ccc(F)cc3)cn(Cc3ccc(F)cc3F)c2cn1 [Example 70, 1-(2,4-Difluorobenzyl)-3-{[(4-fluorobenzyl)amino]methyl}-N-hydroxy-1H-pyrrolo[2,3-c]pyridine-5-carboxamide] | 22 nM | 332 nM | 
CC(NCc1cn(Cc2ccc(F)cc2F)c2cnc(C(=O)NO)cc12)c1ccccc1 (centres unmarked) [Example 71, 1-(2,4-Difluorobenzyl)-N-hydroxy-3-{[(1-phenylethyl)amino]methyl}-1H-pyrrolo[2,3-c]pyridine-5-carboxamide] | 44 nM | 409 nM | 
CN(C)CCNCc1cn(Cc2ccc(F)cc2F)c2cnc(C(=O)NO)cc12 [Example 72, 1-(2,4-Difluorobenzyl)-3-({[2-(dimethylamino)ethyl]amino}methyl)-N-hydroxy-1H-pyrrolo[2,3-c]pyridine-5-carboxamide] | 29 nM | 658 nM | 
CCCN(Cc1cn(Cc2ccc(F)cc2F)c2cnc(C(=O)NO)cc12)CC1CC1 [Example 73, 3-{[(Cyclopropylmethyl)(propyl)amino]methyl}-1-(2,4-difluorobenzyl)-N-hydroxy-1H-pyrrolo[2,3-c]pyridine-5-carboxamide] | 35 nM | 658 nM | 
O=C(NO)c1cc2c(CN[C@@H]3C[C@H]4CC[C@@H]3C4)cn(Cc3ccc(F)cc3F)c2cn1 [Example 74, 3-{[(1R,2R,4S)-Bicyclo[2.2.1]hept-2-ylamino]methyl}-1-(2,4-difluorobenzyl)-N-hydroxy-1H-pyrrolo[2,3-c]pyridine-5-carboxamide] | 32 nM | 357 nM | 
C[C@@H](NCc1cn(Cc2ccc(F)cc2F)c2cnc(C(=O)NO)cc12)C1CCCCC1 [Example 76, 3-({[(1R)-1-Cyclohexylethyl]amino}methyl)-1-(2,4-difluorobenzyl)-N-hydroxy-1H-pyrrolo[2,3-c]pyridine-5-carboxamide] | 91 nM | 402 nM | 
O=C(NO)c1cc2c(CN[C@H](CO)Cc3c[nH]c4ccccc34)cn(Cc3ccc(F)cc3F)c2cn1 [Example 77, 1-(2,4-Difluorobenzyl)-N-hydroxy-3-({[(1S)-2-hydroxy-1-(1H-indol-3-ylmethyl)ethyl]amino}methyl)-1H-pyrrolo[2,3-c]pyridine-5-carboxamide] | 360 nM | 483 nM | 
CC(C)C(CO)NCc1cn(Cc2ccc(F)cc2F)c2cnc(C(=O)NO)cc12 (centres unmarked) [Example 78, 1-(2,4-Difluorobenzyl)-N-hydroxy-3-({[1-(hydroxymethyl)-2-methylpropyl]amino}methyl)-1H-pyrrolo[2,3-c]pyridine-5-carboxamide] | 83 nM | 571 nM | 
Cc1cccc(CNCc2cn(Cc3ccc(F)cc3F)c3cnc(C(=O)NO)cc23)c1 [Example 79, 1-(2,4-Difluorobenzyl)-N-hydroxy-3-{[(3-methylbenzyl)amino]methyl}-1H-pyrrolo[2,3-c]pyridine-5-carboxamide] | 20 nM | 243 nM | 
O=C(NO)c1cc2c(CNCCO)cn(Cc3ccc(F)cc3F)c2cn1 [Example 80, 1-(2,4-Difluorobenzyl)-N-hydroxy-3-{[(2-hydroxyethyl)amino]methyl}-1H-pyrrolo[2,3-c]pyridine-5-carboxamide] |  | 530 nM | 10 nM
CC1CCCN1Cc1cn(Cc2ccc(F)cc2F)c2cnc(C(=O)NO)cc12 (centres unmarked) [Example 81, 1-(2,4-Difluorobenzyl)-N-hydroxy-3-[(2-methylpyrrolidin-1-yl)methyl]-1H-pyrrolo[2,3-c]pyridine-5-carboxamide] | 40 nM | 499 nM | 
CCC(CC)NCc1cn(Cc2ccc(F)cc2F)c2cnc(C(=O)NO)cc12 [Example 82, 1-(2,4-Difluorobenzyl)-3-{[(1-ethylpropyl)amino]methyl}-N-hydroxy-1H-pyrrolo[2,3-c]pyridine-5-carboxamide] | 23 nM | 634 nM | 
CC(C)OCCCNCc1cn(Cc2ccc(F)cc2F)c2cnc(C(=O)NO)cc12 [Example 83, 1-(2,4-Difluorobenzyl)-N-hydroxy-3-H{[(3-isopropoxypropyl)amino]methyl}-1H-pyrrolo[2,3-c]pyridine-5-carboxamide] | 60 nM | 952 nM | 
O=C(NO)c1cc2c(CNCC(O)c3ccccc3)cn(Cc3ccc(F)cc3F)c2cn1 (centres unmarked) [Example 84, 1-(2,4-Difluorobenzyl)-N-hydroxy-3-{[(2-hydroxy-2-phenylethyl)amino]methyl}-1H-pyrrolo[2,3-c]pyridine-5-carboxamide] | 51 nM | 316 nM | 
O=C(NO)c1cc2c(CNCCc3ccc(F)cc3)cn(Cc3ccc(F)cc3F)c2cn1 [Example 85, 1-(2,4-Difluorobenzyl)-3-(J[2-(4-fluorophenyl)ethyl]aminomethyl)-N-hydroxy-1H-pyrrolo[2,3-c]pyridine-5-carboxamide] | 33 nM | 224 nM | 
CC(C)(C)[C@@H](CO)NCc1cn(Cc2ccc(F)cc2F)c2cnc(C(=O)NO)cc12 [Example 87, 1-(2,4-Difluorobenzyl)-N-hydroxy-3-({[(1S)-1-(hydroxymethyl)-2,2-dimethylpropyl]amino}methyl)-1H-pyrrolo[2,3-c]pyridine-5-carboxamide] | 67 nM | 814 nM | 
O=C(NO)c1cc2c(CNCc3ccc(C(F)(F)F)nc3)cn(Cc3ccc(F)cc3F)c2cn1 [Example 88, 1-(2,4-Difluorobenzyl)-N-hydroxy-3-[({[6-(trifluoromethyl)pyridin-3-yl]methyl}amino)methyl]-1H-pyrrolo[2,3-c]pyridine-5-carboxamide] | 16 nM | 238 nM | 
CN1CCC(NCc2cn(Cc3ccc(F)cc3F)c3cnc(C(=O)NO)cc23)CC1 [Example 89, 1-(2,4-Difluorobenzyl)-N-hydroxy-3-{[(1-methylpiperidin-4-yl)amino]methyl}-1H-pyrrolo[2,3-c]pyridine-5-carboxamide] | 52 nM | 708 nM | 
COc1ncccc1NCc1cn(Cc2ccc(F)cc2F)c2cnc(C(=O)NO)cc12 [Example 90, 1-(2,4-Difluorobenzyl)-N-hydroxy-3—[(2-methoxypyridin-3-yl)amino-methyl]-1H-pyrrolo[2,3-c]pyridine-5-carboxamide] | 18 nM | 212 nM | 
O=C(NO)c1cc2c(CNC3CCOCC3)cn(Cc3ccc(F)cc3F)c2cn1 [Example 91, 1-(2,4-Difluorobenzyl)-N-hydroxy-3-[(tetrahydro-2H-pyran-4-ylamino)methyl]-1H-pyrrolo[2,3-c]pyridine-5-carboxamide] | 28 nM | 519 nM | 
O=C(NO)c1cc2c(CNCC34CCCN3CCC4)cn(Cc3ccc(F)cc3F)c2cn1 [Example 92, 1-(2,4-Difluorobenzyl)-N-hydroxy-3-{[(tetrahydro-1H-pyrrolizin-7a(5H)-ylmethyl)amino]methyl}-1H-pyrrolo[2,3-c]pyridine-5-carboxamide] | 70 nM | 425 nM | 
CN(Cc1cnn(-c2ccccc2)c1)Cc1cn(Cc2ccc(F)cc2F)c2cnc(C(=O)NO)cc12 [Example 93, 1-(2,4-Difluorobenzyl)-N-hydroxy-3-({methyl[(1-phenyl-1H-pyrazol-4-yl)methyl]amino}methyl)-1H-pyrrolo[2,3-c]pyridine-5-carboxamide] | 71 nM | 187 nM | 
O=C(NO)c1cc2c(CNCc3ccc(OC(F)F)cc3)cn(Cc3ccc(F)cc3F)c2cn1 [Example 94, 1-(2,4-Difluorobenzyl)-3-({[4-(difluoromethoxy)benzyl]amino}methyl)-N-hydroxy-1H-pyrrolo[2,3-c]pyridine-5-carboxamide] | 26 nM | 288 nM | 
CN(CCS(C)(=O)=O)Cc1cn(Cc2ccc(F)cc2F)c2cnc(C(=O)NO)cc12 [Example 95, 1-(2,4-difluorobenzyl)-N-hydroxy-3-({methyl[2-(methylsulfonyl)ethyl]amino}methyl)-1H-pyrrolo[2,3-c]pyridine-5-carboxamide] | 17 nM | 127 nM | 
O=C(NO)c1cc2c(CNCCC3CCOCC3)cn(Cc3ccc(F)cc3F)c2cn1 [Example 96, 1-(2,4-Difluorobenzyl)-N-hydroxy-3-({[2-(tetrahydro-2H-pyran-4-yl)ethyl]amino}methyl)-1H-pyrrolo[2,3-c]pyridine-5-carboxamide] | 30 nM | 511 nM | 
Cc1ccc2c(c1)C(NCc1cn(Cc3ccc(F)cc3F)c3cnc(C(=O)NO)cc13)CCO2 (centres unmarked) [Example 98, 1-(2,4-difluorobenzyl)-N-hydroxy-3-{[(6-methyl-3,4-dihydro-2H-chromen-4-yl)amino]methyl}-1H-pyrrolo[2,3-c]pyridine-5-carboxamide] | 100 nM | 256 nM | 
